In this experiment the test system is C57BL/KsJ-db/db (db/db) mice. Briefly: Plasma glucose and triglyceride lowering in db/db mice (Experimental Example 1). Type of experiment: in vivo. Particulars: female db/db mice, 10 mg/kg orally once daily for 7 days, fed state; lean (+m/+m) group = 100% inhibition, db/db control = 0%. As to the method:
Female C57BL/KsJ-db/db (db/db) mice and C57BL/KsJ-+m/+m (lean) mice (5 weeks old) were purchased from Jackson Laboratory, and subjected to the test after 1-2 weeks of acclimating period. Animals were maintained on standard laboratory chow and water ad libitum.
Test compound was dissolved or suspended in 0.5% methylcellulose solution and administered orally once a day at a volume of 5 mL/kg of body weight.
• 4-({1-[(3,5-dichloro-2-pyridinyl)methyl]-2,4-dimethyl-1H-benzimidazol-6-yl}oxy)butanoic acid (Example 21) • 4-{[1-(2,4-dichlorobenzyl)-2-ethoxy-4-methyl-1H-benzimidazol-6-yl]oxy}butanoic acid (Example 39) • 2-{[(1-{[3-chloro-5-(trifluoromethyl)-2-pyridinyl]methyl}-2-methyl-1H-benzimidazol-6-yl)oxy]methyl}benzoic acid (Example 75) Test Schedule
At 6 weeks of age, blood was obtained from the retro-orbital sinus by capillary pipette with heparin under feeding condition. Mice were divided into groups matched for body weight, plasma glucose and triglyceride. From 6-7 weeks of age, test compound was administered orally once daily for 7 days. On the next morning of the last administration day, body weight was measured and blood was obtained under feeding condition, and plasma glucose and triglyceride were measured.
Plasma glucose and triglyceride were determined by a mutarotase.glucose oxidase method and a glycerol-3-phosphate oxidase.3,5-dimethoxy-N-ethyl-N-(2′-hydroxy-3′-sulfopropyl)aniline natrium method, respectively, using assay kits from Wako Pure Chemical Industries, Ltd. (Osaka, Japan).
Values of plasma glucose and triglyceride for the lean group (+m/+m) were set as 100% inhibition, and for the control group (db/db) as 0% inhibition. The inhibition rate of plasma glucose and triglyceride for the test group was determined.

As for `CCOc1nc2c(C)cc(OCCCC(=O)O)cc2n1Cc1ccc(Cl)cc1Cl` [Example 39, 4-{[1-(2,4-dichlorobenzyl)-2-ethoxy-4-methyl-1H-benzimidazol-6-yl]oxy}butanoic acid], the “Inhibition rate of plasma glucose” value turned out to be 45% and the “Inhibition rate of plasma triglyceride” value was 60%.

As to `Cc1nc2ccc(OCc3ccccc3C(=O)O)cc2n1Cc1ncc(C(F)(F)F)cc1Cl` [Example 75, 2-{[(1-{[3-chloro-5-(trifluoromethyl)-2-pyridinyl]methyl}-2-methyl-1H-benzimidazol-6-yl)oxy]methyl}benzoic acid], the “Inhibition rate of plasma glucose” value came out at 72% and the “Inhibition rate of plasma triglyceride” value worked out at 89%.

For `Cc1cc(OCCCC(=O)O)cc2c1nc(C)n2Cc1ncc(Cl)cc1Cl` [Example 21, 4-({1-[(3,5-dichloro-2-pyridinyl)methyl]-2,4-dimethyl-1H-benzimidazol-6-yl}oxy)butanoic acid], the “Inhibition rate of plasma glucose” value came out at 41% and the “Inhibition rate of plasma triglyceride” value amounted to 55%.

(Values after patent US20050014812A1, “Benzimidazole compounds” (Fujisawa Pharmaceutical Co., Ltd., priority 2003, published 2005).)
